Laboratory results taken from ChEMBL document CHEMBL4813981, “Synthesis and in vitro antibacterial activity of new aminothiazole-oximepiperidone cephalosporins” (2021).
Converted amounts (≈) assume the structure as drawn.

Assays:
[1] = test system: Escherichia coli; assay: Antibacterial activity against ESBLs negative Carbapenem-sensitive Escherichia coli 17-19 assessed as reduction in bacterial growth; assay type: functional
[2] = test system: Pseudomonas aeruginosa; assay: Antibacterial activity against Carbapenem- sensitive Pseudomonas aeruginosa 17-11 assessed as reduction in bacterial growth; assay type: functional
[3] = test system: Enterococcus faecalis; assay: Antibacterial activity against Enterococcus faecalis ATCC 51299 assessed as reduction in bacterial growth; assay type: functional
[4] = test system: Escherichia coli; assay: Antibacterial activity against Escherichia coli 15-5 overexpressing extended spectrum beta-lactamases assessed as reduction in bacterial growth; assay type: functional
[5] = test system: Klebsiella pneumoniae; assay: Antibacterial activity against Multidrug resistant Klebsiella pneumoniae KR 15-1 assessed as reduction in bacterial growth; assay type: functional
[6] = test system: Klebsiella pneumoniae; assay: Antibacterial activity against Multidrug resistant Klebsiella pneumoniae KR 15-2 assessed as reduction in bacterial growth; assay type: functional
[7] = test system: Acinetobacter baumannii; assay: Antibacterial activity against Multidrug resistant Acinetobacter baumannii AR 15-3 assessed as reduction in bacterial growth; assay type: functional
[8] = test system: Escherichia coli; assay: Antibacterial activity against Escherichia coli ATCC 25922 assessed as reduction in bacterial growth in the presence of Avibactam; assay type: functional
[9] = test system: Escherichia coli; assay: Antibacterial activity against Escherichia coli NCTC 13353 assessed as reduction in bacterial growth in the presence of Avibactam; assay type: functional
[10] = test system: Escherichia coli; assay: Antibacterial activity against Escherichia coli 15-4 overexpressing extended spectrum beta-lactamases assessed as reduction in bacterial growth in the presence of Avibactam; assay type: functional
[11] = test system: Klebsiella pneumoniae; assay: Antibacterial activity against Multidrug resistant Klebsiella pneumoniae KR 15-3 assessed as reduction in bacterial growth in the presence of Avibactam; assay type: functional
[12] = test system: Acinetobacter baumannii; assay: Antibacterial activity against Carbapenem- resistant Acinetobacter baumannii 17-5 assessed as reduction in bacterial growth in the presence of Avibactam; assay type: functional
[13] = test system: Acinetobacter baumannii; assay: Antibacterial activity against Carbapenem- resistant Acinetobacter baumannii 17-8 assessed as reduction in bacterial growth in the presence of Avibactam; assay type: functional
[14] = test system: Acinetobacter baumannii; assay: Antibacterial activity against Carbapenem- resistant Acinetobacter baumannii 17-13 assessed as reduction in bacterial growth in the presence of Avibactam; assay type: functional
[15] = test system: Klebsiella pneumoniae; assay: Antibacterial activity against Carbapenem- resistant Klebsiella pneumoniae KR 15-7 assessed as reduction in bacterial growth in the presence of Avibactam; assay type: functional
[16] = test system: Klebsiella pneumoniae; assay: Antibacterial activity against Carbapenem- resistant Klebsiella pneumoniae KR 15-12 assessed as reduction in bacterial growth in the presence of Avibactam; assay type: functional
[17] = test system: Pseudomonas aeruginosa; assay: Antibacterial activity against Carbapenem- resistant Pseudomonas aeruginosa 17-1 assessed as reduction in bacterial growth in the presence of Avibactam; assay type: functional
[18] = test system: Pseudomonas aeruginosa; assay: Antibacterial activity against Carbapenem- resistant Pseudomonas aeruginosa 17-5 assessed as reduction in bacterial growth in the presence of Avibactam; assay type: functional
[19] = test system: Klebsiella pneumoniae; assay: Antibacterial activity against ESBLs positive Carbapenem-sensitive Klebsiella pneumoniae 17-1 assessed as reduction in bacterial growth in the presence of Avibactam; assay type: functional
[20] = test system: Klebsiella pneumoniae; assay: Antibacterial activity against ESBLs positive Carbapenem-sensitive Klebsiella pneumoniae 17-3 assessed as reduction in bacterial growth in the presence of Avibactam; assay type: functional
[21] = test system: Klebsiella pneumoniae; assay: Antibacterial activity against ESBLs negative Carbapenem-sensitive Klebsiella pneumoniae 17-17 assessed as reduction in bacterial growth in the presence of Avibactam; assay type: functional
[22] = test system: Klebsiella pneumoniae; assay: Antibacterial activity against ESBLs negative Carbapenem-sensitive Klebsiella pneumoniae 17-20 assessed as reduction in bacterial growth in the presence of Avibactam; assay type: functional
[23] = test system: Escherichia coli; assay: Antibacterial activity against ESBLs positive Carbapenem-sensitive Escherichia coli 17-6 assessed as reduction in bacterial growth in the presence of Avibactam; assay type: functional
[24] = test system: Enterobacter cloacae; assay: Antibacterial activity against Enterobacter cloacae 17-2 assessed as reduction in bacterial growth in the presence of Avibactam; assay type: functional
[25] = test system: Enterobacter cloacae; assay: Antibacterial activity against Enterobacter cloacae 17-8 assessed as reduction in bacterial growth in the presence of Avibactam; assay type: functional
[26] = test system: Klebsiella aerogenes; assay: Antibacterial activity against Enterobacter aerogenes 15-3 assessed as reduction in bacterial growth in the presence of Avibactam; assay type: functional
[27] = test system: Klebsiella aerogenes; assay: Antibacterial activity against Enterobacter aerogenes 15-7 assessed as reduction in bacterial growth in the presence of Avibactam; assay type: functional
[28] = test system: Pseudomonas aeruginosa; assay: Antibacterial activity against Carbapenem- sensitive Pseudomonas aeruginosa 17-7 assessed as reduction in bacterial growth in the presence of Avibactam; assay type: functional
[29] = test system: Pseudomonas aeruginosa; assay: Antibacterial activity against Carbapenem- sensitive Pseudomonas aeruginosa 17-22 assessed as reduction in bacterial growth in the presence of Avibactam; assay type: functional
[30] = test system: Enterobacter cloacae; assay: Bactericidal activity against Enterobacter cloacae 17-10 assessed as reduction in bacterial growth; assay type: functional
[31] = test system: Klebsiella aerogenes; assay: Bactericidal activity against Enterobacter aerogenes 17-1 assessed as reduction in bacterial growth; assay type: functional
[32] = test system: Pseudomonas aeruginosa; assay: Bactericidal activity against carbapenem-sensitive Pseudomonas aeruginosa 17-26 assessed as reduction in bacterial growth; assay type: functional
[33] = test system: Acinetobacter baumannii; assay: Bactericidal activity against Carbapenem- resistant Acinetobacter baumannii 17-6 assessed as reduction in bacterial growth in the presence of avibactam; assay type: functional
[34] = test system: Klebsiella pneumoniae; assay: Bactericidal activity against Carbapenem- resistant Klebsiella pneumoniae KR 15-4 assessed as reduction in bacterial growth in the presence of avibactam; assay type: functional
[35] = test system: Klebsiella pneumoniae; assay: Bactericidal activity against Carbapenem- resistant Klebsiella pneumoniae KR 15-5 assessed as reduction in bacterial growth in the presence of avibactam; assay type: functional
[36] = test system: Klebsiella pneumoniae; assay: Bactericidal activity against Carbapenem- resistant Klebsiella pneumoniae KR 15-6 assessed as reduction in bacterial growth in the presence of avibactam; assay type: functional
[37] = test system: Klebsiella pneumoniae; assay: Bactericidal activity against Carbapenem- resistant Klebsiella pneumoniae KR 15-7 assessed as reduction in bacterial growth in the presence of avibactam; assay type: functional
[38] = test system: Pseudomonas aeruginosa; assay: Bactericidal activity against Carbapenem- resistant Pseudomonas aeruginosa 17-8 assessed as reduction in bacterial growth in the presence of avibactam; assay type: functional
[39] = test system: Klebsiella pneumoniae; assay: Bactericidal activity against ESBLs positive Carbapenem-sensitive Klebsiella pneumoniae 17-6 assessed as reduction in bacterial growth in the presence of avibactam; assay type: functional
[40] = test system: Klebsiella pneumoniae; assay: Bactericidal activity against ESBLs negative Carbapenem-sensitive Klebsiella pneumoniae 17-16 assessed as reduction in bacterial growth in the presence of avibactam; assay type: functional
[41] = test system: Klebsiella pneumoniae; assay: Bactericidal activity against ESBLs negative Carbapenem-sensitive Klebsiella pneumoniae 17-17 assessed as reduction in bacterial growth in the presence of avibactam; assay type: functional
[42] = test system: Escherichia coli; assay: Bactericidal activity against ESBLs negative carbapenem-sensitive Escherichia coli 17-9 assessed as reduction in bacterial growth in the presence of avibactam; assay type: functional
[43] = test system: Escherichia coli; assay: Bactericidal activity against ESBLs negative carbapenem-sensitive Escherichia coli 17-20 assessed as reduction in bacterial growth in the presence of avibactam; assay type: functional
[44] = test system: Escherichia coli; assay: Bactericidal activity against ESBLs positive carbapenem-sensitive Escherichia coli 17-10 assessed as reduction in bacterial growth in the presence of avibactam; assay type: functional
[45] = test system: Enterobacter cloacae; assay: Bactericidal activity against Enterobacter cloacae 17-8 assessed as reduction in bacterial growth in the presence of avibactam; assay type: functional
[46] = test system: Pseudomonas aeruginosa; assay: Bactericidal activity against carbapenem-sensitive Pseudomonas aeruginosa 17-9 assessed as reduction in bacterial growth in the presence of avibactam; assay type: functional
[47] = test system: Escherichia coli; assay: Bactericidal activity against Escherichia coli ATCC 25922 assessed as reduction in bacterial growth in the presence of avibactam; assay type: functional
[48] = test system: Klebsiella aerogenes; assay: Antibacterial activity against Enterobacter aerogenes 15-3 assessed as reduction in bacterial growth

## C[C@@H](O)[C@H]1C(=O)N2C(C(=O)O)=C(S[C@@H]3CN[C@H](C(=O)N(C)C)C3)[C@H](C)[C@H]12 [MEROPENEM]
[1]
  MIC: < 0.03 µg/mL
[2]
  MIC: 2 µg/mL (≈ 5.22 µM)

## CC(C)(O/N=C(\C(=O)N[C@@H]1C(=O)N2C(C(=O)[O-])=C(C[n+]3ccccc3)CS[C@H]12)c1csc(N)n1)C(=O)O [CEFTAZIDIME]
[3]
  MIC: > 64 µg/mL
[4]
  MIC: 32 µg/mL (≈ 58.5 µM)
[5]
  MIC: > 64 µg/mL
[6]
  MIC: > 64 µg/mL
[7]
  MIC: > 64 µg/mL
[8]
  MIC: 0.125 µg/mL
[9]
  MIC: 0.5 µg/mL
[10]
  MIC: 0.5 µg/mL
[11]
  MIC: 2 µg/mL
[12]
  MIC: 8 µg/mL
[13]
  MIC: 8 µg/mL
[14]
  MIC: 2 µg/mL
[15]
  MIC: 2 µg/mL
[16]
  MIC: 4 µg/mL
[17]
  MIC: 8 µg/mL
[18]
  MIC: 32 µg/mL
[19]
  MIC: 1 µg/mL
[20]
  MIC: 2 µg/mL
[21]
  MIC: 0.125 µg/mL
[22]
  MIC: 0.125 µg/mL
[23]
  MIC: 0.5 µg/mL
[24]
  MIC: 1 µg/mL
[25]
  MIC: 0.125 µg/mL
[26]
  MIC: 4 µg/mL
[27]
  MIC: 1 µg/mL
[28]
  MIC: 0.125 µg/mL
[29]
  MIC: 0.5 µg/mL
[30]
  MBC: 4 µg/mL (≈ 7.32 µM)
[31]
  MBC: 16 µg/mL (≈ 29.3 µM)
[32]
  MBC: 8 µg/mL (≈ 14.6 µM)
[33]
  MBC: 16 µg/mL
[34]
  MBC: 2 µg/mL
[35]
  MBC: 4 µg/mL
[36]
  MBC: 2 µg/mL
[37]
  MBC: 2 µg/mL
[38]
  MBC: 16 µg/mL
[39]
  MBC: > 8 µg/mL
[40]
  MBC: 0.25 µg/mL
[41]
  MBC: 0.25 µg/mL
[42]
  MBC: 0.25 µg/mL
[43]
  MBC: > 2 µg/mL
[44]
  MBC: 1 µg/mL
[45]
  MBC: 1 µg/mL
[46]
  MBC: 0.25 µg/mL
[47]
  MBC: 1 µg/mL
[48]
  MIC: > 64 µg/mL

## Nc1nc(/C(=N/OCc2cc(=O)c(O)cn2O)C(=O)N[C@@H]2C(=O)N3C(C(=O)O)=CCS[C@H]23)cs1
[3]
  MIC: > 64 µg/mL
[4]
  MIC: > 64 µg/mL
[5]
  MIC: > 64 µg/mL
[6]
  MIC: > 64 µg/mL
[7]
  MIC: > 64 µg/mL
[8]
  MIC: 0.25 µg/mL
[9]
  MIC: 0.5 µg/mL
[10]
  MIC: 0.5 µg/mL
[11]
  MIC: 1 µg/mL
[1]
  MIC: 1 µg/mL (≈ 1.97 µM)
[2]
  MIC: 8 µg/mL (≈ 15.7 µM)
[12]
  MIC: 16 µg/mL
[13]
  MIC: 16 µg/mL
[14]
  MIC: 2 µg/mL
[15]
  MIC: 1 µg/mL
[16]
  MIC: 4 µg/mL
[17]
  MIC: 16 µg/mL
[18]
  MIC: 32 µg/mL
[19]
  MIC: 0.25 µg/mL
[20]
  MIC: 4 µg/mL
[21]
  MIC: 0.125 µg/mL
[22]
  MIC: 0.06 µg/mL
[23]
  MIC: 0.5 µg/mL
[24]
  MIC: 1 µg/mL
[25]
  MIC: 2 µg/mL
[26]
  MIC: 16 µg/mL
[27]
  MIC: 2 µg/mL
[28]
  MIC: 0.25 µg/mL
[29]
  MIC: 1 µg/mL
[30]
  MBC: > 8 µg/mL
[31]
  MBC: 64 µg/mL (≈ 126 µM)
[32]
  MBC: > 16 µg/mL
[33]
  MBC: 16 µg/mL
[34]
  MBC: 8 µg/mL
[35]
  MBC: 4 µg/mL
[36]
  MBC: 0.5 µg/mL
[37]
  MBC: 2 µg/mL
[38]
  MBC: 32 µg/mL
[39]
  MBC: 0.5 µg/mL
[40]
  MBC: 0.06 µg/mL
[41]
  MBC: 1 µg/mL
[42]
  MBC: 2 µg/mL
[43]
  MBC: > 0.5 µg/mL
[44]
  MBC: 0.5 µg/mL
[45]
  MBC: 2 µg/mL
[46]
  MBC: 4 µg/mL
[47]
  MBC: 0.5 µg/mL
[48]
  MIC: > 64 µg/mL
